The text below walks through data of US5672710A, “Sulfides, sulfoxides and sulfones disubstituted with a tetrahydronaphthalenyl, chromanyl, thiochromanyl or tetrahydroquinolinyl and substituted phenyl or heteroaryl group, having retinoid-like biological activity” (priority 1995, dated 1997).

As usually defined, the EC50 is the concentration that produces a half-maximal response. Low readings indicate greater potency, high ones weaker potency. The term Kd denotes a measure of binding affinity in units of concentration. A high value points to lower affinity.

The structures appear in SMILES notation.

The target in assay [1] is T1, RXRβ (Mus musculus, UniProt P28704).
T1 construct: expressed in transfected cells; host or cells: CV1
T1 sequence (P28704 1-520): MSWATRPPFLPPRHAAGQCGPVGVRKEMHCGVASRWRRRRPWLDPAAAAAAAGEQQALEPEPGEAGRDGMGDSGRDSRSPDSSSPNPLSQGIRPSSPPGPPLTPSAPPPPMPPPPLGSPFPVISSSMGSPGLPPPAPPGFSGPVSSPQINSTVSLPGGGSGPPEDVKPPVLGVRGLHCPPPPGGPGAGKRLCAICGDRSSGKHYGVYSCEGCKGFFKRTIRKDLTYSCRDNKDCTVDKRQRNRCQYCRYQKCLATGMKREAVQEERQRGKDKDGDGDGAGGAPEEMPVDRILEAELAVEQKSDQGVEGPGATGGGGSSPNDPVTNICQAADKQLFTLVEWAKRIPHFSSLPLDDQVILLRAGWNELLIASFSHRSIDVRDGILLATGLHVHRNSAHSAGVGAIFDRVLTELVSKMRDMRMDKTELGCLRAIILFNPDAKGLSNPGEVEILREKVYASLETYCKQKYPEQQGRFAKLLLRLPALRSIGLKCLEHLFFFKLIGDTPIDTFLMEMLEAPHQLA
The assay can be described thus: Holoreceptor transactivation assay, RXRβ. Type of assay: cell-based. Particulars: CV1 cells; for Emax: CV-1, relative to all trans retinoic acid, read-out: Transactivation Assay Efficacy (% of RA activity), RXRβ; for EC50: 36 hours. The source says:
(§1) A holoreceptor transactivation assay and a ligand binding assay which measure the ability of the compounds of the invention to bind to the several retinoid receptor subtypes, respectively, are described in published PCT Application No. WO W093/11755 (particularly on pages 30-33 and 37-41) published on Jun. 24, 1993, the specification of which is also incorporated herein by reference. A description of the holoreceptor transactivation assay is also provided below.
(§2) CV1 cells (5,000 cells/well) were transfected with an RAR reporter plasmid MTV-TREp-LUC (50 ng) along with one of the […] expression vectors (10 ng) in an automated 96-well format by the calcium phosphate procedure of Heyman et al. Cell 68, 397-406. (8). For RXRα and RXR.GAMMA. transactivation assays, an RXR-responsive reporter plasmid CRBPII-tk-LUC (50 ng) along with the appropriate RXRexpression vectors (10 ng) was used substantially as described by Heyman et al. above, and Allegretto et al. J. Biol. Chem. 268, 26625-26633. For RXRβ transactivation assays, an RXR-responsive reporter plasmid CPRE-tk-LUC ([…]) along with RXRβ expression vector ([…]) was used as described in above. These reporters contain DRI elements from human CRBPII and certain DRI elements from promoter, respectively. (see Mangelsdorf et al. The Retinoids: Biology, Chemistry and Medicine, pp 319-349, Raven Press Ltd., New York and Heyman et al., cited above) (1, 8). A β-galactosidase (50 ng) expression vector was used as an internal control in the transfections to normalize for variations in transfection efficiency. The cells were transfected in triplicate for 6 hours, followed by incubation with retinoids for 36 hours, and the extracts were assayed for luciferase and β-galactosidase activities. The detailed experimental procedure for holoreceptor transactivations has been described in Heyman et al. above, and Allegretto et al. cited above. The results obtained in this assay in connection with examplary compounds in accordance with the present invention are expressed in EC50 numbers, as they are also in the chimeric receptor transactivation assay. The Heyman et al. Cell 68, 397-406, Allegretto et al. J. Biol. Chem. 268, 26625-26633, and Mangelsdorf et al. The Retinoids: Biology, Chemistry and Medicine, pp 319-349, Raven Press Ltd., New York, are expressly incorporated herein by reference. The results of ligand binding assay are expressed in Kd numbers. (See Cheng et al. Biochemical Pharmacology Vol. 22 pp 3099-3108, expressly incorporated herein by reference.)

Assay [2] addresses T2, RXRγ (Mus musculus, UniProt P28705).
T2 construct: expressed in transfected cells; host or cells: CV1
T2 sequence (P28705 1-463): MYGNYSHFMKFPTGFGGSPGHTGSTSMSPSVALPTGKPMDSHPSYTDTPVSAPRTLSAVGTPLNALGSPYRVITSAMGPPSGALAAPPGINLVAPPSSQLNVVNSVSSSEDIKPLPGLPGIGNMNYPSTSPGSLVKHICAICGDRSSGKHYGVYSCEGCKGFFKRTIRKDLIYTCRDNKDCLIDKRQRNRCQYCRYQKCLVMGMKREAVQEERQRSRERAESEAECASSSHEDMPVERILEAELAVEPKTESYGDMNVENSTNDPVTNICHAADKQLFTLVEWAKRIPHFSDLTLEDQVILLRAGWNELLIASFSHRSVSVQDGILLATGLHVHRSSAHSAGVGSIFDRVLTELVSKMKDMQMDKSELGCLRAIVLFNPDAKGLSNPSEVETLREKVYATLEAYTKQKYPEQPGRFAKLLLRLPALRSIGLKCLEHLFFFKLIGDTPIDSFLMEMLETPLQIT
In words: Holoreceptor transactivation assay, RXRγ. Format: cell-based. The conditions noted are these: CV1 cells; for EC50: 36 hours; for Emax: CV-1, relative to all trans retinoic acid, read-out: Transactivation Assay Efficacy (% of RA activity), RXRγ.
Description: as §1, §2

Assay [3] addresses T2, RXRγ. In words: Ligand binding assay, RXRγ.
Description: as §1, §2

Take `CC1(C)CCC(C)(C)c2cc(S(=O)(=O)c3ccc(C(=O)O)cc3)ccc21` [Compound 5, 4-(5,6,7,8-tetrahydro-5,5,8,8-tetramethyl-2-naphthylsulfonyl)benzoic acid]: in assay [1], the Emax is 11%. Also, in assay [2], the concentration giving a half-maximal response (EC50) was 2600 nM and the Emax was 26%. In addition, the equilibrium dissociation constant (Kd) in assay [3] was > 1000 nM.
In the case of `Cc1cc2c(cc1Sc1ccc(C(=O)O)cn1)C(C)(C)CCC2(C)C` [Compound 13], in assay [2], the EC50 was determined as 42 nM and the Emax came out at 85%. In addition, in assay [3], the Kd is 73 nM.
On to `Cc1cc2c(cc1Sc1ncc(C(=O)O)s1)C(C)(C)CCC2(C)C` [Compound 15, 2-(5,6,7,8-Tetrahydro-3,5,5,8,8-pentamethyl-2-naphthylthio)-5-thiazolecarboxylic acid], for which, in assay [1], the concentration giving a half-maximal response (EC50) was determined as 1300 nM and the Emax came out at 117%. Further, in assay [2], a half-maximal effect (EC50) was put at 1900 nM and the Emax was 70%. For the same compound, the equilibrium dissociation constant (Kd) in assay [3] was > 1000 nM.
Consider `Cc1cc2c(cc1S(=O)(=O)c1ccc(C(=O)O)cc1)C(C)(C)CCC2(C)C` [Compound 11, 4-(5,6,7,8-tetrahydro-3,5,5,8,8-pentamethyl-2-naphthylsulfonyl)benzoic acid], for which, in assay [3], the Kd is > 1000 nM.
Turning to `Cc1cc2c(cc1Sc1ccc(C(=O)O)cc1)C(C)(C)CCC2(C)C` [Compound 7, 4-(5,6,7,8-tetrahydro-3,5,5,8,8-pentamethyl-2-Daphthylthio)benzoic acid], the EC50 turned out to be 320 nM in assay [1] and 230 nM in assay [2]. The Emax in assay [1] is 114%; in assay [2], 67%. Moreover, the Kd in assay [3] was 304 nM.
For the compound `Cc1cc2c(cc1[S+]([O-])c1ccc(C(=O)O)cc1)C(C)(C)CCC2(C)C` (stereo not shown) [Compound 9, 4-(5,6,7,8-tetrahydro-3,5,5,8,8-pentamethyl-2-naphthylsulfoxy)benzoic acid], in assay [1], it took 3000 nM to reach a half-maximal effect (EC50) and the Emax amounted to 29%. Moreover, in assay [2], the response was half-maximal at 1600 nM (EC50) and the Emax worked out at 28%. Further, the Kd in assay [3] is > 1000 nM.
On to `CC1(C)CCC(C)(C)c2cc(Sc3ccc(C(=O)O)cc3)ccc21` [Compound 2], for which, in assay [1], the response was half-maximal at 1600 nM (EC50) and the Emax came to 80%.
